In US20260028350A1, “TOXIN MOLECULE SUITABLE FOR ANTIBODY-DRUG CONJUGATE” (Minghui Pharmaceutical (Hangzhou) Limited, priority 2022, published 2026) one finds GI50 data, which are given here for 30 molecules.

Each structure is given as a SMILES string.

For the first assay, the system named is KPL-4 Cells. Briefly: Cell proliferation inhibition test (CellTiter-Glo, 72h). Type of assay: cell-based. The conditions noted are these: 72h incubation, Table 2 run. The procedure:
KPL-4 Cells in the logarithmic phase of growth were collected and re-suspended with fresh RPMI1640 complete cell culture medium, and adjusted to 2×10^4 cells/mL after cell counting. Cells were seeded into 96-well cell culture plates at 100 µL/well, and placed in a CO2 incubator (37° C., 5% CO2) overnight. In the next day, one of the cell culture plates were taken out, balanced to room temperature, and CellTiter-Glo reagent (Promega, USA), which was pre-balanced to room temperature and evenly mixed, was added into the plate at 100 μl. The plate was kept in dark for 30 min, and then luminescence value was read with a microplate reader (denoted as Go value). The other cell culture plates were taken out and added with different concentrations of test compounds or DMSO (final concentration 0.5%) in corresponding wells. After incubated for 72h in a CO2 incubator, the cell culture plates were balanced to room temperature and tested for cell viabilities using CellTiter-Glo reagent as described above (denoted as G3 value).
DXd was used as a positive reference compound with the following structure:
The cell proliferation rates were calculated using the following formula: Cell proliferation rate (%)=(mean of G3compound−mean of G0)/(mean of G3DMSO−mean of G0)×100.
On the technique in general: ATP-based viability assays read luminescence as a measure of living cells.
`CC[C@@]1(O)C(=O)OCc2c1cc1n(c2=S)Cc2c-1nc1cc(F)c(C)c3c1c2[C@@H](NC(=O)C1CC(O)C1)CC3` (stereo partly shown) [Example 29] registered a GI50 of 5.96 nM. This counts as single-digit nanomolar.

For `CC[C@@]1(O)C(=O)OCc2c1cc1n(c2=S)Cc2c-1nc1cc(F)c(C)c3c1c2[C@@H](NC(=O)C1CC(O)C1)CC3` (stereo partly shown) [Example 30], the GI50 worked out at 11.3 nM.

On to `CC[C@@]1(O)C(=O)OCc2c1cc1n(c2=S)Cc2c-1nc1cc(F)c(C)c3c1c2[C@@H](NC(=O)C1CCC(O)CC1)CC3` (stereo partly shown) [Example 32], for which the 50% growth inhibitory concentration (GI50) stood at 8.47 nM. The GI50 values of the last two molecules are within 1.5-fold of each other.

For `CC[C@@]1(O)C(=O)OCc2c1cc1n(c2=S)Cc2c-1nc1cc(F)c(C)c3c1c2[C@@H](NC(=O)C1CCC(O)CC1)CC3` (stereo partly shown) [Example 33], the GI50 was determined as 6.34 nM.

The assay is the same for the next values; noted with them: KPL4, 72 h, 72h incubation, Table 1 run (DXd: average of 2 measurements).
For `CC[C@@]1(O)C(=O)OCc2c1cc1n(c2=O)Cc2c-1nc1cc(F)c(C)c3c1c2[C@@H](NC(=O)CO)CS3` [DXd, reference compound], the GI50 was found to be 45.4 nM. This lies in the double-digit nanomolar range.

In turn, `CC[C@@]1(O)C(=O)OCc2c1cc1n(c2=S)Cc2c-1nc1cc(F)c(C)cc1c2CN` [Example 2] showed a GI50 of 2.82 nM.

Molecule `CC[C@@]1(O)C(=O)OCc2c1cc1n(c2=S)Cc2c-1nc1cc(F)c(C)cc1c2CNC(=O)CO` [Example 3] came in with a GI50 of 6.27 nM.

In the case of `CC[C@@]1(O)C(=O)OCc2c1cc1n(c2=S)Cc2c-1nc1cc(F)c(C)cc1c2CCCCO` [Example 4], the GI50 was 2.23 nM.

Molecule `CC[C@@]1(O)C(=O)OCc2c1cc1n(c2=S)Cc2c-1nc1ccc(N)c3c1c2CCC3` [Example 5] displayed a GI50 of 1.84 nM. The GI50 values of the last two molecules are within 1.5-fold of each other.

The same assay, now with this note: KPL4, 72 h, 72h incubation, Table 2 run.
In the case of `CC[C@@]1(O)C(=O)OCc2c1cc1n(c2=O)Cc2c-1nc1cc(F)c(C)c3c1c2[C@@H](NC(=O)CO)CS3` [DXd, reference compound], the 50% growth inhibitory concentration (GI50) was found to be 22.8 nM.

As to `CC[C@@]1(O)C(=O)OCc2c1cc1n(c2=S)Cc2cc3c(CCCCO)c(C)c(F)cc3nc2-1` [Example 6], the GI50 is 3.45 nM.

As for `CC[C@@]1(O)C(=O)OCc2c1cc1n(c2=S)Cc2c-1nc1cc3c(cc1c2CNC(=O)CO)OCO3` [Example 8], the GI50 worked out at 12 nM.

`CC[C@@]1(O)C(=O)OCc2c1cc1n(c2=S)Cc2c-1nc1cc3c(cc1c2CNC(=O)CN)OCO3` [Example 9] came in with a GI50 of 12.2 nM.

For `CC[C@@]1(O)C(=O)OCc2c1cc1n(c2=S)Cc2c-1nc1cc3c(cc1c2CCNC(C)C)OCO3` [Example 10], growth was halved (GI50) at 2.24 nM.

Take `CC[C@@]1(O)C(=O)OCc2c1cc1n(c2=S)Cc2c-1nc1ccccc1c2CCNC(C)C` [Example 11]: the GI50 stood at 6.48 nM. Against the preceding molecule, the GI50 is about 2.9-fold higher.

The molecule `CC[C@@]1(O)C(=O)OCc2c1cc1n(c2=S)Cc2c-1nc1cc3c(cc1c2C12CC(N)(C1)C2)OCO3` [Example 12] displayed a GI50 of 2.98 nM.

In the case of `CC[C@@]1(O)C(=O)OCc2c1cc1n(c2=S)Cc2cc3cc(N)c(F)cc3nc2-1` [Example 13], the concentration for 50% growth inhibition (GI50) came to 0.63 nM.

`CC[C@@]1(O)C(=O)OCc2c1cc1n(c2=S)Cc2c-1nc1cc3c(cc1c2CNC(=O)C(O)C1CC1)OCO3` (stereo partly shown) [Example 14]: growth was halved (GI50) at 3.49 nM.

In turn, `CC[C@@]1(O)C(=O)OCc2c1cc1n(c2=S)Cc2c-1nc1cc3c(cc1c2CNC(=O)C(C)O)OCO3` (stereo partly shown) [Example 15] returned a GI50 of 4.13 nM.

Regarding `CC[C@@]1(O)C(=O)OCc2c1cc1n(c2=S)Cc2c-1nc1cc3c(cc1c2CNC(=O)C1CC(O)C1)OCO3` (stereo partly shown) [Example 16], the GI50 was 14.5 nM.

`CC[C@@]1(O)C(=O)OCc2c1cc1n(c2=S)Cc2c-1nc1cc3c(cc1c2CNC(=O)C[C@@H](C)O)OCO3` [Example 18] registered a GI50 of 4.35 nM.

`CC[C@@]1(O)C(=O)OCc2c1cc1n(c2=S)Cc2c-1nc1cc3c(cc1c2CNC(=O)C[C@H](C)O)OCO3` [Example 19] came in with a GI50 of 4.27 nM.

`CC[C@@]1(O)C(=O)OCc2c1cc1n(c2=S)Cc2c-1nc1cc(F)c(C)cc1c2CNC(=O)C1CCC(O)CC1` (stereo partly shown) [Example 21] gave a GI50 of 16.8 nM.

`CC[C@@]1(O)C(=O)OCc2c1cc1n(c2=S)Cc2c-1nc1cc(F)c(C)cc1c2CNC(=O)C(C)O` (stereo partly shown) [Example 22] showed a GI50 of 2.81 nM. Compared with the last molecule, the GI50 is about 6-fold lower.

Turning to `CC[C@@]1(O)C(=O)OCc2c1cc1n(c2=S)Cc2c-1nc1cc(F)c(C)cc1c2CNC(=O)C(O)C1CC1` (stereo partly shown) [Example 23], the GI50 turned out to be 1.73 nM.

`CC[C@@]1(O)C(=O)OCc2c1cc1n(c2=S)Cc2c-1nc1cc(F)c(C)cc1c2CNC(=O)C[C@H](C)O` [Example 24] showed a GI50 of 2.81 nM.

On to `CC[C@@]1(O)C(=O)OCc2c1cc1n(c2=S)Cc2c-1nc1cc(F)c(C)cc1c2CNC(=O)C[C@@H](C)O` [Example 25], for which the 50% growth inhibitory concentration (GI50) is 2.21 nM.

`CC[C@@]1(O)C(=O)OCc2c1cc1n(c2=S)Cc2c-1nc1cc(F)c(C)c3c1c2[C@@H](NC(=O)C[C@@H](C)O)CC3` [Example 26] registered a GI50 of 3.24 nM.

Take `CC[C@@]1(O)C(=O)OCc2c1cc1n(c2=S)Cc2c-1nc1cc(F)c(C)c3c1c2[C@@H](NC(=O)C[C@H](C)O)CC3` [Example 27]: the GI50 worked out at 2.93 nM. This GI50 and that of the molecule before are within 1.5-fold of each other.

Consider `CC[C@@]1(O)C(=O)OCc2c1cc1n(c2=S)Cc2c-1nc1cc(F)c(C)c3c1c2[C@@H](NC(=O)C1CC(O)C1)CC3` (stereo partly shown) [Example 28], for which the GI50 is 10.8 nM.

`CC[C@@]1(O)C(=O)OCc2c1cc1n(c2=S)Cc2c-1nc1cc(F)c(C)c3c1c2[C@@H](NC(=O)C1CCC(O)CC1)CC3` (stereo partly shown) [Example 31] had a GI50 of 8.62 nM. The GI50 values of the last two molecules are within 1.5-fold of each other.

As a reminder, the GI50 is the concentration giving 50% growth inhibition. A low value points to greater sensitivity of the cells.
